Source: patent US11819500B2, “T-cell regulation in t-cell mediated diseases by reducing pathogenic function of TH17 in a human subject through treatment with a nitroxide” (priority 2016, dated 2023)

Tests used:
[1] = tested on: Bag5; assay: Gene expression in cardiac tissue after Tempol administration (chip-based microarray); format: in vivo; settings: mice aged 31 months, Tempol 5 mg/g of food from 14 to 31 months, control mice 300
Protocol: (§1) To assess the effects of Tempol on gene expression, Tempol was administered to experimental mice at a dose of 5 mg/g of food from 14 months to 31 months after birth. Mice receiving the same food without the addition of Tempol were used as a negative control. At the age of 31 months, the experimental animals were sacrificed and the hearts were surgically removed. The expression of a broad spectrum of genes in the cardiac tissue was assessed using chip-based microarray technology. Such chips are well known in the art and are widely used to assess gene expression.

[2] = tested on: Bri3; assay: as above; format: in vivo; settings: mice aged 31 months, Tempol 5 mg/g of food from 14 to 31 months, control mice 1549
Protocol: as §1

[3] = tested on: Cd5l; assay: as above; format: in vivo; settings: mice aged 31 months, Tempol 5 mg/g of food from 14 to 31 months, control mice 150
Protocol: as §1

[4] = tested on: Perp; assay: as above; format: in vivo; settings: mice aged 31 months, Tempol 5 mg/g of food from 14 to 31 months, control mice 49
Protocol: as §1

[5] = tested on: Unc5b; assay: as above; format: in vivo; settings: mice aged 31 months, Tempol 5 mg/g of food from 14 to 31 months, control mice 103
Protocol: as §1

[6] = tested on: Cd5l, Perp, Unc5b, Bag5 or Bri3; settings: human, in vivo
[7] = tested on: Bri3; assay: Serum level of Bri3 after Tempol treatment of a human subject; format: in vivo; settings: human subject with or at risk of a neurodegenerative disease (e.g., Alzheimer's Disease); 1500 mg per day for 180 days
Protocol: A human subject is administered a dose of 1500 mg of Tempol (or a nitroxide antioxidant) per day for 180 days. The human subject may be a 70-kilogram human subject over the age of 65. The human subject may be at risk of developing a neurodegenerative disease (e.g., Alzheimer's Disease), may have symptoms of a neurodegenerative disease, and/or may have a neurodegenerative disease. The risk, the symptoms, or the neurodegenerative disease may be caused by decreased expression level of Bri3. The human subject can be identified. The dose may be administered in a single dose, or may be administered as a number of smaller doses over a 24-hour period: for example, three 500-mg doses at eight-hour intervals. Following treatment, the serum level of Bri3 is increased. Increased Bri3 expression can inhibit amyloid precursor protein (APP) processing and amyloid plaque deposition, thus suppressing or reversing development of the neurodegenerative disease.

[8] = tested on: Cd5l; assay: Serum level of Cd5l after Tempol treatment of a human subject; format: in vivo; settings: 1500 mg per day for 180 days
Protocol: A human subject is administered a dose of 1500 mg of Tempol (or a nitroxide antioxidant) per day for 180 days. The human subject may be a 70-kilogram human subject. The human subject may be at risk of having pathogenic T-helper cell activity, may have symptoms of pathogenic T-helper cell activity, and/or may have a disease (e.g., an autoimmune disease) associated with pathogenic T-helper cell activity (e.g., pathogenic T-helper 17 cell activity). The autoimmune disease may be mediated by IL-23 as an effector molecule. The human subject can be identified. The dose may be administered in a single dose, or may be administered as a number of smaller doses over a 24-hour period: for example, three 500-mg doses at eight-hour intervals. Following treatment, the serum level of Cd5l is increased. Increased Cd5l expression can alter lipid biosynthesis within the T-helper cell, thus suppressing the pathogenic T-helper cell activity and/or reversing the effect of the pathogenic T-helper cell activity.
A human subject is administered a dose of 1500 mg of Tempol (or a nitroxide antioxidant) per day for 180 days. The human subject may be a 70-kilogram human subject. The human subject may be at risk of developing an autoimmune disease, may have symptoms of an autoimmune disease, and/or may have an autoimmune disease. The autoimmune disease may be mediated by IL-23 as an effector molecule. […]

[9] = tested on: Perp; assay: Level of Perp after Tempol treatment of a human subject; format: in vivo; settings: 70-kilogram human subject with a disorder such as a desmosome-associated disorder; 1500 mg per day for 180 days
Protocol: A human subject is administered a dose of 1500 mg of Tempol (or a nitroxide antioxidant) per day for 180 days. The human subject is a 70-kilogram human subject. The human subject may have a disorder (such as a desmosome-associated disorder, which can be associated or characterized by damaged epithelial tissue). The human subject can be identified. The dose may be administered in a single dose, or may be administered as a number of smaller doses over a 24-hour period: for example, three 500-mg doses at eight-hour intervals. Following treatment, the level (e.g., the serum level) of Perp is increased, which can in turn increase desmosome function (e.g., characterized by epithelial integrity)

SMILES: CC1(C)CC(O)CC(C)(C)N1[O] [Tempol, 4-hydroxy-2,2,6,6-tetramethylpiperidine-1-oxyl]
- Bag5 expression, Tempol-treated mice [1]: 370
- Bri3 expression, Tempol-treated mice [2]: 1835
- Cd5l expression, Tempol-treated mice [3]: 406
- Perp expression, Tempol-treated mice [4]: 82
- Unc5b expression, Tempol-treated mice [5]: 172
- serum level of Cd5l, Perp, Unc5b, Bag5 or Bri3 [6]: increased
- serum level of Bri3 [7]: increased
- serum level of Cd5l ([8]; human subject with or at risk of developing an autoimmune disease): increased
- serum level of Cd5l ([8]; human subject with or at risk of pathogenic T-helper cell activity): increased
- level (e.g., the serum level) of Perp [9]: increased
